± gives the standard deviation of the averaged measurements.
Assays:
Experiment in all cases: relative viability vs DMSO control (72 h) (fraction); higher = more viable cells
SYO-1 = test system: SYO-1
In short: (§1)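 Sarcoma cell lines were seeded in 384-well plates at densities chosen for 80–90% confluence, then 24 h later given 2.5 µl of serially diluted compound drawn from source plates spanning 10 mM to 0.0002 mM. They were held 72 h at 37 °C, 5% CO2, with 0.1% DMSO vehicle and a 5 µM positive control included. Relative viability was read with ATPLite as percent growth and averaged over up to triplicate wells. Rescaling placed full at 1 and none at 0.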

SW872 = test system: SW872
In short: as §1

KHOS-NP = test system: KHOS-NP
In short: as §1

SW684 = test system: SW684
In short: as §1

HT1080 = test system: HT1080
In short: as §1

G401 = test system: G401
In short: as §1

SK-LMS-1 = test system: SK-LMS-1
In short: as §1

VA-ES-BJ = test system: VA-ES-BJ
In short: as §1

HS729 = test system: HS729
In short: as §1

A204 = test system: A204
In short: as §1

SW1353 = test system: SW1353
In short: as §1

MES-SA = test system: MES-SA
In short: as §1

SMILES: CCCCCCCCCCCCCCCCCCOP(=O)([O-])OC1CC[N+](C)(C)CC1 [Perifosine]
- relative viability (SYO-1; 0.00017 µM): 1.01 ± 0.026
- relative viability (SYO-1; 0.00051 µM): 1.012 ± 0.01
- relative viability (SYO-1; 0.00152 µM): 0.99 ± 0.033
- relative viability (SYO-1; 0.00457 µM): 1.01 ± 0.046
- relative viability (SYO-1; 0.01372 µM): 0.977 ± 0.06
- relative viability (SYO-1; 0.04115 µM): 0.965 ± 0.084
- relative viability (SYO-1; 0.1235 µM): 0.97 ± 0.056
- relative viability (SYO-1; 0.3704 µM): 0.946 ± 0.051
- relative viability (SYO-1; 1.111 µM): 0.941 ± 0.057
- relative viability (SYO-1; 3.333 µM): 0.903 ± 0.042
- relative viability (SYO-1; 10 µM): 0.901 ± 0.059
- relative viability (SW872; 0.00017 µM): 1.07 ± 0.025
- relative viability (SW872; 0.00051 µM): 1.1 ± 0.016
- relative viability (SW872; 0.00152 µM): 1.05 ± 0.019
- relative viability (SW872; 0.00457 µM): 1.03 ± 0.017
- relative viability (SW872; 0.01372 µM): 0.986 ± 0.078
- relative viability (SW872; 0.04115 µM): 1.05 ± 0.055
- relative viability (SW872; 0.1235 µM): 1.04 ± 0.077
- relative viability (SW872; 0.3704 µM): 0.982 ± 0.028
- relative viability (SW872; 1.111 µM): 0.891 ± 0.033
- relative viability (SW872; 3.333 µM): 0.629 ± 0.035
- relative viability (SW872; 10 µM): 0.519 ± 0.032
- relative viability (KHOS-NP; 0.00017 µM): 1.09 ± 0.025
- relative viability (KHOS-NP; 0.00051 µM): 1.1 ± 0.046
- relative viability (KHOS-NP; 0.00152 µM): 1.099 ± 0.0076
- relative viability (KHOS-NP; 0.00457 µM): 1.11 ± 0.021
- relative viability (KHOS-NP; 0.01372 µM): 1.1 ± 0.033
- relative viability (KHOS-NP; 0.04115 µM): 1.08 ± 0.017
- relative viability (KHOS-NP; 0.1235 µM): 1.067 ± 0.0078
- relative viability (KHOS-NP; 0.3704 µM): 1.07 ± 0.036
- relative viability (KHOS-NP; 1.111 µM): 1.03 ± 0.037
- relative viability (KHOS-NP; 3.333 µM): 0.984 ± 0.016
- relative viability (KHOS-NP; 10 µM): 0.496 ± 0.058
- relative viability (SW684; 0.00017 µM): 1.08 ± 0.03
- relative viability (SW684; 0.00051 µM): 1.16 ± 0.045
- relative viability (SW684; 0.00152 µM): 1.19 ± 0.046
- relative viability (SW684; 0.00457 µM): 1.14 ± 0.062
- relative viability (SW684; 0.01372 µM): 1.15 ± 0.018
- relative viability (SW684; 0.04115 µM): 1.18 ± 0.071
- relative viability (SW684; 0.1235 µM): 1.18 ± 0.055
- relative viability (SW684; 0.3704 µM): 1.21 ± 0.079
- relative viability (SW684; 1.111 µM): 1.24 ± 0.055
- relative viability (SW684; 3.333 µM): 1.16 ± 0.1
- relative viability (SW684; 10 µM): 1.12 ± 0.056
- relative viability (HT1080; 0.00017 µM): 1.1 ± 0.034
- relative viability (HT1080; 0.00051 µM): 1.083 ± 0.0073
- relative viability (HT1080; 0.00152 µM): 1.07 ± 0.043
- relative viability (HT1080; 0.00457 µM): 1.06 ± 0.013
- relative viability (HT1080; 0.01372 µM): 1.063 ± 0.0078
- relative viability (HT1080; 0.04115 µM): 1.06 ± 0.046
- relative viability (HT1080; 0.1235 µM): 1.04 ± 0.035
- relative viability (HT1080; 0.3704 µM): 1.0633 ± 0.00028
- relative viability (HT1080; 1.111 µM): 1.04 ± 0.044
- relative viability (HT1080; 3.333 µM): 1.037 ± 0.0079
- relative viability (HT1080; 10 µM): 1.05 ± 0.025
- relative viability (G401; 0.00017 µM): 1.057 ± 0.0047
- relative viability (G401; 0.00051 µM): 1.06 ± 0.011
- relative viability (G401; 0.00152 µM): 1.07 ± 0.0054
- relative viability (G401; 0.00457 µM): 1.07 ± 0.018
- relative viability (G401; 0.01372 µM): 1.06 ± 0.034
- relative viability (G401; 0.04115 µM): 1.059 ± 0.0094
- relative viability (G401; 0.1235 µM): 1.064 ± 0.0048
- relative viability (G401; 0.3704 µM): 1.06 ± 0.019
- relative viability (G401; 1.111 µM): 1.05 ± 0.028
- relative viability (G401; 3.333 µM): 1.03 ± 0.011
- relative viability (G401; 10 µM): 1.06 ± 0.023
- relative viability (SK-LMS-1; 0.00017 µM): 1.01 ± 0.024
- relative viability (SK-LMS-1; 0.00051 µM): 1.05 ± 0.018
- relative viability (SK-LMS-1; 0.00152 µM): 1.02 ± 0.051
- relative viability (SK-LMS-1; 0.00457 µM): 1.06 ± 0.026
- relative viability (SK-LMS-1; 0.01372 µM): 1.01 ± 0.037
- relative viability (SK-LMS-1; 0.04115 µM): 0.994 ± 0.046
- relative viability (SK-LMS-1; 0.1235 µM): 1.02 ± 0.035
- relative viability (SK-LMS-1; 0.3704 µM): 1.01 ± 0.055
- relative viability (SK-LMS-1; 1.111 µM): 0.848 ± 0.15
- relative viability (SK-LMS-1; 3.333 µM): 0.836 ± 0.096
- relative viability (SK-LMS-1; 10 µM): 0.68 ± 0.031
- relative viability (VA-ES-BJ; 0.00017 µM): 1.08 ± 0.025
- relative viability (VA-ES-BJ; 0.00051 µM): 1.09 ± 0.016
- relative viability (VA-ES-BJ; 0.00152 µM): 1.05 ± 0.033
- relative viability (VA-ES-BJ; 0.00457 µM): 1.1 ± 0.033
- relative viability (VA-ES-BJ; 0.01372 µM): 1.07 ± 0.026
- relative viability (VA-ES-BJ; 0.04115 µM): 1.091 ± 0.0089
- relative viability (VA-ES-BJ; 0.1235 µM): 1.06 ± 0.038
- relative viability (VA-ES-BJ; 0.3704 µM): 1.05 ± 0.038
- relative viability (VA-ES-BJ; 1.111 µM): 1.05 ± 0.046
- relative viability (VA-ES-BJ; 3.333 µM): 1.02 ± 0.053
- relative viability (VA-ES-BJ; 10 µM): 0.2547 ± 0.0024
- relative viability (HS729; 0.00017 µM): 1.06 ± 0.04
- relative viability (HS729; 0.00051 µM): 0.9606 ± 0.0037
- relative viability (HS729; 0.00152 µM): 1.01 ± 0.037
- relative viability (HS729; 0.00457 µM): 1.02 ± 0.037
- relative viability (HS729; 0.01372 µM): 0.924 ± 0.043
- relative viability (HS729; 0.04115 µM): 0.931 ± 0.05
- relative viability (HS729; 0.1235 µM): 0.987 ± 0.026
- relative viability (HS729; 0.3704 µM): 0.909 ± 0.051
- relative viability (HS729; 1.111 µM): 0.902 ± 0.014
- relative viability (HS729; 3.333 µM): 0.904 ± 0.042
- relative viability (HS729; 10 µM): 0.913 ± 0.026
- relative viability (A204; 0.00017 µM): 1.05 ± 0.051
- relative viability (A204; 0.00051 µM): 1.08 ± 0.022
- relative viability (A204; 0.00152 µM): 1.07 ± 0.08
- relative viability (A204; 0.00457 µM): 1.07 ± 0.032
- relative viability (A204; 0.01372 µM): 1.06 ± 0.069
- relative viability (A204; 0.04115 µM): 1.07 ± 0.061
- relative viability (A204; 0.1235 µM): 1.08 ± 0.067
- relative viability (A204; 0.3704 µM): 1.06 ± 0.087
- relative viability (A204; 1.111 µM): 1.03 ± 0.087
- relative viability (A204; 3.333 µM): 1.06 ± 0.086
- relative viability (A204; 10 µM): 1.08 ± 0.096
- relative viability (SW1353; 0.00017 µM): 1.11 ± 0.012
- relative viability (SW1353; 0.00051 µM): 1.1 ± 0.043
- relative viability (SW1353; 0.00152 µM): 1.09 ± 0.022
- relative viability (SW1353; 0.00457 µM): 1.08 ± 0.035
- relative viability (SW1353; 0.01372 µM): 1.04 ± 0.022
- relative viability (SW1353; 0.04115 µM): 1.04 ± 0.036
- relative viability (SW1353; 0.1235 µM): 1.05 ± 0.033
- relative viability (SW1353; 0.3704 µM): 1.07 ± 0.025
- relative viability (SW1353; 1.111 µM): 1.03 ± 0.025
- relative viability (SW1353; 3.333 µM): 1.02 ± 0.022
- relative viability (SW1353; 10 µM): 1.06 ± 0.038
- relative viability (MES-SA; 0.00017 µM): 0.987 ± 0.012
- relative viability (MES-SA; 0.00051 µM): 0.982 ± 0.021
- relative viability (MES-SA; 0.00152 µM): 0.998 ± 0.015
- relative viability (MES-SA; 0.00457 µM): 0.974 ± 0.022
- relative viability (MES-SA; 0.01372 µM): 0.96 ± 0.016
- relative viability (MES-SA; 0.04115 µM): 0.922 ± 0.012
- relative viability (MES-SA; 0.1235 µM): 0.953 ± 0.021
- relative viability (MES-SA; 0.3704 µM): 0.936 ± 0.03
- relative viability (MES-SA; 1.111 µM): 0.855 ± 0.043
- relative viability (MES-SA; 3.333 µM): 0.918 ± 0.031
- relative viability (MES-SA; 10 µM): 0.781 ± 0.032

From the supplement of paper PMC10883282
